Measured values published in PubChem BioAssay AID206 (DTP/NCI, 2004).
Several values for one entry are separate records, joined by “and”; a condition that tells them apart may be missing. Equal entries are not always repeated. Records with an inconclusive call do not appear.

System: nude mice, HT29 intrarenal xenograft, tumor weight T/C
Experiment: NCI In Vivo Anticancer Drug Screen. Data for tumor model HT29;CX-1 Human Adenocarcinoma (MER+) (intrarenal inoculation) in NU/NU Swiss (nude) mice
Settings: endpoint: mean tumor weight change, higher = larger tumour
How it was run: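 Endpoint measured as tumor size or survival; ratio reported is treated group over vehicle controls.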

[1] = dose: 100.0 mg/kg/injection, schedule: Q04DX004 (sc), vehicle: suspension in saline
[2] = dose: 200.0 mg/kg/injection, schedule: Q04DX004 (sc), vehicle: suspension in saline
[3] = dose: 100.0 mg/kg/injection, schedule: Q01DX010 (sc), vehicle: saline with Tween-80
[4] = dose: 200.0 mg/kg/injection, schedule: Q01DX010 (sc), vehicle: saline with Tween-80
[5] = dose: 400.0 mg/kg/injection, schedule: Q01DX010 (sc), vehicle: saline with Tween-80
[6] = dose: 800.0 mg/kg/injection, schedule: Q01DX010 (sc), vehicle: saline with Tween-80
[7] = dose: 75.0 mg/kg/injection, schedule: Q04DX004 (sc), vehicle: saline
[8] = dose: 150.0 mg/kg/injection, schedule: Q04DX004 (sc), vehicle: saline
[9] = dose: 37.5 mg/kg/injection, schedule: Q04DX004 (sc), vehicle: Klucel (hydroxypropylcellulose) (HPC)
[10] = dose: 75.0 mg/kg/injection, schedule: Q04DX004 (sc), vehicle: Klucel (hydroxypropylcellulose) (HPC)
[11] = dose: 150.0 mg/kg/injection, schedule: Q04DX004 (sc), vehicle: Klucel (hydroxypropylcellulose) (HPC)
[12] = dose: 600.0 mg/kg/injection, schedule: Q04DX004 (sc), vehicle: Klucel (hydroxypropylcellulose) (HPC)
[13] = dose: 75.0 mg/kg/injection, schedule: Q04DX004 (sc), vehicle: saline with Tween-80
[14] = dose: 150.0 mg/kg/injection, schedule: Q04DX004 (sc), vehicle: saline with Tween-80

## O=C1NC(O)c2ccccc2O1 (stereo unspecified)
[1]
  T/C: 68 % of control
[2]
  T/C: 115 % of control
dose: 400.0 mg/kg/injection, schedule: Q04DX004 (sc), vehicle: suspension in saline
  T/C: 50 % of control
dose: 800.0 mg/kg/injection, schedule: Q04DX004 (sc), vehicle: suspension in saline
  T/C: 55 % of control

## CNC(=O)c1cccc2c(Nc3ccc(NS(C)(=O)=O)cc3OC)c3cccc(C)c3nc12
dose: 50.0 mg/kg/injection, schedule: Q04DX004 (sc), vehicle: other
  T/C: 72 % of control
dose: 100.0 mg/kg/injection, schedule: Q04DX004 (sc), vehicle: other
  T/C: 39 % of control

## O=CN(SSN(C=O)C1CCCCC1)C1CCCCC1
[3]
  T/C: 36 % of control
[4]
  T/C: 178 % of control
[5]
  T/C: 85 % of control
[6]
  T/C: 90 % of control

## COc1ccc2nc3cc(Cl)ccc3c(NCCNCCNCCNc3c4ccc(Cl)cc4nc4ccc(OC)cc34)c2c1
[3]
  T/C: 116 % of control
[5]
  T/C: 124 % of control
[6]
  T/C: 93 % of control

## O=C1C=C(C2OC(CO)C(O)C2O)C(=O)N1 (stereo unspecified)
dose: 6.25 mg/kg/injection, schedule: Q01DX010 (sc), vehicle: saline
  T/C: 78 % of control
dose: 12.5 mg/kg/injection, schedule: Q01DX010 (sc), vehicle: saline
  T/C: 78 % of control

## COC(=O)C(Cl)(Cl)N=Nc1c(Cl)cc(Cl)c(C)c1Cl
dose: 225.0 mg/kg/injection, schedule: Q04DX004 (sc), vehicle: saline with Tween-80
  T/C: 87 % of control
dose: 450.0 mg/kg/injection, schedule: Q04DX004 (sc), vehicle: saline with Tween-80
  T/C: 105 % of control
dose: 900.0 mg/kg/injection, schedule: Q04DX004 (sc), vehicle: saline with Tween-80
  T/C: 81 % of control
dose: 1800.0 mg/kg/injection, schedule: Q04DX004 (sc), vehicle: saline with Tween-80
  T/C: 115 % of control

## CN(C)/N=N/c1nc[nH]c1C(N)=O
dose: 100.0 mg/kg/injection, schedule: Q01DX010 (sc), vehicle: Klucel (hydroxypropylcellulose) (HPC)
  T/C: 90 % of control and 109 % of control
dose: 400.0 mg/kg/injection, schedule: Q01DX010 (sc), vehicle: Klucel (hydroxypropylcellulose) (HPC)
  T/C: 77 % of control

## N=C(N)Sc1cc(O)ccc1O
[7]
  T/C: 49 % of control
[8]
  T/C: 54 % of control
dose: 300.0 mg/kg/injection, schedule: Q04DX004 (sc), vehicle: saline
  T/C: 54 % of control

## COc1c(C=O)c2c(c(OC)c1OC)-c1ccc(OC)c(=O)cc1[C@@H](NC(C)=O)CC2
dose: 18.75 mg/kg/injection, schedule: Q04DX004 (sc), vehicle: Klucel (hydroxypropylcellulose) (HPC)
  T/C: 70 % of control
[9]
  T/C: 71 % of control

## O=c1s[se]c2ccccc12
[10]
  T/C: 108 % of control
[11]
  T/C: 48 % of control
[12]
  T/C: 74 % of control

## CC(=O)c1c(O)c(C)c(O)c2c1OC1=CC(=O)C(C(C)=O)C(=O)C12C (stereo unspecified)
dose: 300.0 mg/kg/injection, schedule: Q04DX004 (sc), vehicle: sodium bicarbonate
  T/C: 104 % of control
dose: 600.0 mg/kg/injection, schedule: Q04DX004 (sc), vehicle: sodium bicarbonate
  T/C: 91 % of control
dose: 800.0 mg/kg/injection, schedule: Q01DX010 (sc), vehicle: sodium bicarbonate
  T/C: 3 % of control and 9 % of control

## CN(C)P(=O)(Oc1ccccc1)N(C)C
[13]
  T/C: 183 % of control
[14]
  T/C: 122 % of control
dose: 300.0 mg/kg/injection, schedule: Q04DX004 (sc), vehicle: saline with Tween-80
  T/C: 62 % of control
dose: 600.0 mg/kg/injection, schedule: Q04DX004 (sc), vehicle: saline with Tween-80
  T/C: 40 % of control

## C=C1C(=O)OCC1C(=O)O (stereo unspecified)
dose: 50.0 mg/kg/injection, schedule: Q04DX004 (sc), vehicle: suspension in saline
  T/C: 87 % of control
[1]
  T/C: 48 % of control
[2]
  T/C: 48 % of control

## CCNC(=O)[B-][N+](C)(C)C
dose: 100.0 mg/kg/injection, schedule: Q04DX004 (sc), vehicle: saline
  T/C: 94 % of control
dose: 200.0 mg/kg/injection, schedule: Q04DX004 (sc), vehicle: saline
  T/C: 60 % of control
dose: 400.0 mg/kg/injection, schedule: Q04DX004 (sc), vehicle: saline
  T/C: 43 % of control

## C[C@]12C=CC(=O)C=C1CC[C@@H]1[C@@H]2C(=O)C[C@@]2(C)[C@H]1CC[C@]2(O)C(=O)CO
[11]
  T/C: 18 % of control
[12]
  T/C: 27 % of control
dose: 1200.0 mg/kg/injection, schedule: Q04DX004 (sc), vehicle: Klucel (hydroxypropylcellulose) (HPC)
  T/C: 19 % of control

## CCCCCC1c2cc(O)ccc2OC1N1CCOCC1 (stereo unspecified)
[13]
  T/C: 29 % of control
[14]
  T/C: 34 % of control
dose: 1200.0 mg/kg/injection, schedule: Q04DX004 (sc), vehicle: saline with Tween-80
  T/C: 57 % of control
dose: 2400.0 mg/kg/injection, schedule: Q04DX004 (sc), vehicle: saline with Tween-80
  T/C: 15 % of control

## Nc1ccn(C2OC(CO)C(O)C2O)c(=O)n1 (stereo unspecified)
dose: 15.63 mg/kg/injection, schedule: Q01DX010 (sc), vehicle: water
  T/C: 100 % of control
dose: 31.25 mg/kg/injection, schedule: Q01DX010 (sc), vehicle: water
  T/C: 102 % of control
dose: 500.0 mg/kg/injection, schedule: Q04DX004 (sc), vehicle: saline
  T/C: 62 % of control
dose: 600.0 mg/kg/injection, schedule: Q04DX004 (sc), vehicle: saline
  T/C: 77 % of control
dose: 1000.0 mg/kg/injection, schedule: Q04DX004 (sc), vehicle: saline
  T/C: 19 % of control

## Cc1cc2nc3[nH]c4ccccc4c3nc2cc1C
dose: 100.0 mg/kg/injection, schedule: Q01DX010 (sc), vehicle: saline
  T/C: 46 % of control
dose: 200.0 mg/kg/injection, schedule: Q01DX010 (sc), vehicle: saline
  T/C: 98 % of control
dose: 400.0 mg/kg/injection, schedule: Q01DX010 (sc), vehicle: saline
  T/C: 82 % of control
dose: 800.0 mg/kg/injection, schedule: Q01DX010 (sc), vehicle: saline
  T/C: 84 % of control

## CCN(CC)CCOC(=O)Cc1cccc2c(=O)cc(-c3ccccc3)oc12
dose: 50.0 mg/kg/injection, schedule: Q04DX004 (sc), vehicle: saline with Tween-80
  T/C: 70 % of control
dose: 100.0 mg/kg/injection, schedule: Q04DX004 (sc), vehicle: saline with Tween-80
  T/C: 104 % of control
dose: 200.0 mg/kg/injection, schedule: Q04DX004 (sc), vehicle: saline with Tween-80
  T/C: 102 % of control

## CC(=O)OCC1OC(n2ccc(N)nc2=O)C(OC(C)=O)C1OC(C)=O (stereo unspecified)
dose: 300.0 mg/kg/injection, schedule: Q04DX004 (sc), vehicle: suspension in saline
  T/C: 43 % of control
dose: 600.0 mg/kg/injection, schedule: Q04DX004 (sc), vehicle: suspension in saline
  T/C: 50 % of control
dose: 1200.0 mg/kg/injection, schedule: Q04DX004 (sc), vehicle: suspension in saline
  T/C: 43 % of control
dose: 2400.0 mg/kg/injection, schedule: Q04DX004 (sc), vehicle: suspension in saline
  T/C: 24 % of control

## O=NN(CCCl)C(=O)NCCO
dose: 12.5 mg/kg/injection, schedule: Q04DX004 (sc), vehicle: water
  T/C: 81 % of control

## O=C1C=CC(=O)N1c1ccc(Cl)cc1
[9]
  T/C: 70 % of control
[10]
  T/C: 70 % of control
[11]
  T/C: 106 % of control

## O=C1NC(c2ccccc2)N=C2Oc3ccccc3C=C12 (stereo unspecified)
dose: 50.0 mg/kg/injection, schedule: Q01DX010 (sc), vehicle: saline with Tween-80
  T/C: 115 % of control
[3]
  T/C: 155 % of control
[4]
  T/C: 77 % of control
[5]
  T/C: 54 % of control

## O=C(O)C(O)C(O)C1[O][Sb][O]C1C(=O)O (stereo unspecified)
dose: 37.5 mg/kg/injection, schedule: Q04DX004 (sc), vehicle: saline
  T/C: 100 % of control
[7]
  T/C: 73 % of control
[8]
  T/C: 93 % of control
